Literature values in patent EP1935424A1, “PHARMACEUTICAL COMPOSITIONS COMPRISING COMBINED ANTIDIABETIC SUBSTANCES FOR USE IN DIABETES MELLITUS” (ESPINOZA ABDALA, Leopoldo de Jesús, priority 2005, dated 2007).
Read-outs that look alike come from different tables or passages of the source.

Legend:
[1] = for absorption: oral / gastrointestinal tract, in words; for half-life (clearance half-life in plasma): parent compound; for eliminated by renal route without being metabolized: share of the administered dose as non-metabolized drug; for metabolized by: enzymes named; for bioavailability / tmax (plasma peak following administration): oral
[2] = route of clearance, table Sulfonylureas: Pharmacokinetc Properties
[3] = table Sulfonylureas: Pharmacokinetc Properties, unit not given

Compound: C[C@H]1O[C@H](O[C@H]2[C@H](O)[C@@H](O)[C@@H](O[C@H]3[C@H](O)[C@@H](O)C(O)O[C@@H]3CO)O[C@@H]2CO)[C@H](O)[C@@H](O)[C@@H]1N[C@H]1C=C(CO)[C@@H](O)[C@H](O)[C@H]1O (some centres unmarked) [Acarbose]
- absorbed orally ([1]; in vivo, po): < 2%
- absorption [1]: poorly absorbed orally

Compound: CCCNC(=O)NS(=O)(=O)c1ccc(Cl)cc1 [Chlorpropamide]
- half-life (clearance half-life in plasma) [1]: 24 to 48 h
- Clearance [1, 2]: Hepatic and renal
- eliminated by renal route without being metabolized [1]: about 20%
- Action duration [1, 3]: 24-72

Compound: COc1ccc(Cl)cc1C(=O)NCCc1ccc(S(=O)(=O)NC(=O)NC2CCCCC2)cc1 [Glibenclamide]
- Action duration ([1]; in vivo): 12-16
- Clearance ([1]; in vivo): Hepatic

Compound: Cc1ccc(S(=O)(=O)NC(=O)NN2CC3CCCC3C2)cc1 (centres unmarked) [Glicazide]
- Clearance [1, 2]: Hepatic
- Action duration [1, 3]: 12-13

Compound: CCC1=C(C)CN(C(=O)NCCc2ccc(S(=O)(=O)NC(=O)N[C@H]3CC[C@H](C)CC3)cc2)C1=O [Glimepiride]
- Clearance [1, 2]: Hepatic and renal
- Action duration [1, 3]: 24

Compound: Cc1cnc(C(=O)NCCc2ccc(S(=O)(=O)NC(=O)NC3CCCCC3)cc2)cn1 [Glipizide]
- Action duration [1, 3]: 5-10

Compound: COc1ccc2c(c1)C(=O)N(CCc1ccc(S(=O)(=O)NC(=O)NC3CCCCC3)cc1)C(=O)C2(C)C [Gliquidone]
- Clearance [1, 2]: Hepatic
- Action duration [1, 3]: 2-4

Compound: CN(C)C(=N)N=C(N)N [Metformin]
- absorption is completed in ([1]; gastrointestinal tract): about 6 hours
- excreted by renal route ([1]; of an oral dose in 12 hours): 90%

Compound: CC(C)[C@H]1CC[C@H](C(=O)N[C@H](Cc2ccccc2)C(=O)O)CC1 [Nateglinide]
- binds to plasma proteins (plasma proteins): 97%
- metabolized by [1]: CYP3A4 and CYP2C9
- bioavailability [1]: greater than 70%
- tmax (plasma peak following administration) [1]: 1 h
- absorption [1]: rapidly absorbed
- half-life (clearance half-life in plasma) [1]: about 1.5 hours
- eliminated by renal route without being metabolized [1]: About 16%

Compound: CCc1ccc(CCOc2ccc(CC3SC(=O)NC3=O)cc2)nc1 (centres unmarked) [Pioglitazone]
- binds to plasma proteins (plasma proteins): more than 99%
- metabolized by [1]: CYP3A4 and CYP2C9
- bioavailability [1]: ~80%
- tmax (plasma peak following administration) [1]: 2 h
- half-life (clearance half-life in plasma) [1]: 5 to 6 h
- clearance half-life for the metabolites ([1]; three active metabolites): 16 to 24 h

Compound: CCOc1cc(CC(=O)N[C@@H](CC(C)C)c2ccccc2N2CCCCC2)ccc1C(=O)O [Repaglinide]
- binds to plasma proteins (plasma proteins): more than 98%
- metabolized by [1]: cytochrome P450 and by glucuronidases
- eliminated, time following administration ([1]; in vivo): 4 to 6 h
- tmax (plasma peak following administration) [1]: 1 h
- absorption [1]: rapidly absorbed
- half-life (clearance half-life in plasma) [1]: about 1 hours
- insulinotropic response to a meal occurs after taking an oral dose ([1]; patients with type 2 diabetes, oral dose): ≤ 30 min

Compound: CN(CCOc1ccc(CC2SC(=O)NC2=O)cc1)c1ccccn1 (centres unmarked) [Rosiglitazone]
- binds to plasma proteins (plasma proteins): 99.8%
- metabolized by [1]: cytochrome P450 isoenzymes 2C8 and 2C9
- eliminated in feces ([1]; in vivo): 23%
- eliminated in urine ([1]; in vivo): 64%
- bioavailability [1]: 99%
- tmax (plasma peak following administration) [1]: 1 h
- half-life (clearance half-life in plasma) [1]: 3 to 4 h
